Results as given in article PMC10176470, “Engaging a Non-catalytic Cysteine Residue Drives Potent and Selective Inhibition of Caspase-6” (Journal of the American Chemical Society, 2023).
Where two headings read alike, the source gives them in different places.

Columns and labels:
Type in all cases: cell-based
[1] = molecular target: T1, proteins of HEK293T cells transiently overexpressing caspase-6 (Homo sapiens, UniProt O00410); details: protein IPO5 (O00410)
T1 sequence (O00410 1-1097): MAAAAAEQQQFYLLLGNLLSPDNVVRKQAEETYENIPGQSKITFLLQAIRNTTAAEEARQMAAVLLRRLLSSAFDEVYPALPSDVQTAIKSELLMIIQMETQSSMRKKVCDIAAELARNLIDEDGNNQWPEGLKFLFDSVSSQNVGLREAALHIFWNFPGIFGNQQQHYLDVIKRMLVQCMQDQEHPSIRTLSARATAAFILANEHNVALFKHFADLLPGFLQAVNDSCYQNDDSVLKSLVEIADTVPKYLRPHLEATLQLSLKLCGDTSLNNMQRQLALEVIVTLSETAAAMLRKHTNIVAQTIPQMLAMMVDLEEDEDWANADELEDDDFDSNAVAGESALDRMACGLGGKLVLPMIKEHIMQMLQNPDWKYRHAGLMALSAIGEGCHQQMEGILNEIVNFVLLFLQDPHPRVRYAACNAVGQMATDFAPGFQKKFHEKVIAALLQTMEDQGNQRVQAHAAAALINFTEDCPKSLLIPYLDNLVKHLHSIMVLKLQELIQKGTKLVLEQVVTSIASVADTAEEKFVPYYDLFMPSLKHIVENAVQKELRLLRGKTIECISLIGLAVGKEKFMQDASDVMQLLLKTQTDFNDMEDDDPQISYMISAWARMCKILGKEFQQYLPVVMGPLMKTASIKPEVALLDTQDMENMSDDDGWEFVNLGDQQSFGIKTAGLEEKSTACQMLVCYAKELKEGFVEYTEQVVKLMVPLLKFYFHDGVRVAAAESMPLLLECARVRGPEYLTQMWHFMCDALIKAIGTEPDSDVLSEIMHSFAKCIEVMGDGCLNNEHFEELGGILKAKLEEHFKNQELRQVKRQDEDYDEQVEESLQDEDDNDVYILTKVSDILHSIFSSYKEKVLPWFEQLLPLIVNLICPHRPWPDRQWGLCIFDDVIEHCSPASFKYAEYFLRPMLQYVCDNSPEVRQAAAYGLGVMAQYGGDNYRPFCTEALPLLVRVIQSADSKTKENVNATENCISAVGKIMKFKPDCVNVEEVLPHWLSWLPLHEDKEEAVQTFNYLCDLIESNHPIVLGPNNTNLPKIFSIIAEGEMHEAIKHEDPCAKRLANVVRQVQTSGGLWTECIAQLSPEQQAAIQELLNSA

[2] = molecular target: proteins of HEK293T cells transiently overexpressing caspase-6 (Homo sapiens, UniProt O75533); details: exp_ref Probe; protein SF3B1 (O75533); analysis C6
[3] = molecular target: proteins of HEK293T cells transiently overexpressing caspase-6 (Homo sapiens, UniProt P07437); details: protein TUBB (P07437)
[4] = molecular target: proteins of HEK293T cells transiently overexpressing caspase-6 (Homo sapiens, UniProt P08238); details: exp_ref Probe; protein HSP90AB1 (P08238); analysis C6
[5] = molecular target: proteins of HEK293T cells transiently overexpressing caspase-6 (Homo sapiens, UniProt P14868); details: exp_ref Probe; protein DARS (P14868); analysis C6
[6] = molecular target: proteins of HEK293T cells transiently overexpressing caspase-6 (Homo sapiens, UniProt P25705); details: exp_ref Probe; protein ATP5A1 (P25705); analysis C6
[7] = molecular target: T2, proteins of HEK293T cells transiently overexpressing caspase-6 (Homo sapiens, UniProt P30041); details: protein PRDX6 (P30041)
T2 sequence (P30041 1-224): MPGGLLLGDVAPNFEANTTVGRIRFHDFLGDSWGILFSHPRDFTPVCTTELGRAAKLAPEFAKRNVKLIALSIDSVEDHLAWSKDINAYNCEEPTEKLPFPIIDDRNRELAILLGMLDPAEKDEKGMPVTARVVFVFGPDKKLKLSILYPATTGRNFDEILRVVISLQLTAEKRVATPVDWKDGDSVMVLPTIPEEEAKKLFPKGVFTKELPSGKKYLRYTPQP

[8] = molecular target: proteins of HEK293T cells transiently overexpressing caspase-6 (Homo sapiens, UniProt P39687); details: exp_ref Probe; protein ANP32A (P39687); analysis C6
[9] = molecular target: T3, proteins of HEK293T cells transiently overexpressing caspase-6 (Homo sapiens, UniProt P45880); details: protein VDAC2 (P45880)
T3 sequence (P45880 1-294): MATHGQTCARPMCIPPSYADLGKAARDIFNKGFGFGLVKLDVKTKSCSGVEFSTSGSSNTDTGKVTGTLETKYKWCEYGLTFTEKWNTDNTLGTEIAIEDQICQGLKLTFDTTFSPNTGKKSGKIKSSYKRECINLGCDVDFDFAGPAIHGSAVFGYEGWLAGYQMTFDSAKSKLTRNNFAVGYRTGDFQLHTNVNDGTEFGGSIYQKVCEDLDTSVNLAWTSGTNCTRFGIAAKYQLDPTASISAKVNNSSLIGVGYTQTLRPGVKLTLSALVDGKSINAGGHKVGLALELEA

[10] = molecular target: proteins of HEK293T cells transiently overexpressing caspase-6 (Homo sapiens, UniProt P84090); details: Probe; protein ERH P84090
[11] = molecular target: proteins of HEK293T cells transiently overexpressing caspase-6 (Homo sapiens, UniProt Q99714); details: exp_ref Probe; protein HSD17B10 (Q99714); analysis C6
[12] = molecular target: proteins of HEK293T cells transiently overexpressing caspase-6 (Homo sapiens, UniProt Q9NVX2); details: Probe; protein NLE1 Q9NVX2
[13] = molecular target: proteins of HEK293T cells transiently overexpressing caspase-6 (Homo sapiens, UniProt Q9Y230); details: protein RUVBL2 (Q9Y230); exp_ref Probe; analysis C6
Sequence of proteins of HEK293T cells transiently overexpressing caspase-6 (Homo sapiens, UniProt Q9Y230) (Q9Y230 whole entry): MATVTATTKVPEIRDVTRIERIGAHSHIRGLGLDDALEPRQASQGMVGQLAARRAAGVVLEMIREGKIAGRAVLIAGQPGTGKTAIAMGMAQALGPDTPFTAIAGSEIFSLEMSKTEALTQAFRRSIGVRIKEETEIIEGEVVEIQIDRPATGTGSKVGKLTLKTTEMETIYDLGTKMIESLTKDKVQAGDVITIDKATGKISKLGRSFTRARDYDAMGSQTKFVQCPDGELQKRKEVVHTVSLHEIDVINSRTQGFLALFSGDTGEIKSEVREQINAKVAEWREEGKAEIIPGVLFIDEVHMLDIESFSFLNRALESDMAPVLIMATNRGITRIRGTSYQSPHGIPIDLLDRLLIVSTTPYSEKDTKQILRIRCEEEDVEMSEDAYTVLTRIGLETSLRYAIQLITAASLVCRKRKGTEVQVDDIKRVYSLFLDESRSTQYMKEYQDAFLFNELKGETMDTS

Sequence of proteins of HEK293T cells transiently overexpressing caspase-6 (Homo sapiens, UniProt P07437) (P07437 whole entry): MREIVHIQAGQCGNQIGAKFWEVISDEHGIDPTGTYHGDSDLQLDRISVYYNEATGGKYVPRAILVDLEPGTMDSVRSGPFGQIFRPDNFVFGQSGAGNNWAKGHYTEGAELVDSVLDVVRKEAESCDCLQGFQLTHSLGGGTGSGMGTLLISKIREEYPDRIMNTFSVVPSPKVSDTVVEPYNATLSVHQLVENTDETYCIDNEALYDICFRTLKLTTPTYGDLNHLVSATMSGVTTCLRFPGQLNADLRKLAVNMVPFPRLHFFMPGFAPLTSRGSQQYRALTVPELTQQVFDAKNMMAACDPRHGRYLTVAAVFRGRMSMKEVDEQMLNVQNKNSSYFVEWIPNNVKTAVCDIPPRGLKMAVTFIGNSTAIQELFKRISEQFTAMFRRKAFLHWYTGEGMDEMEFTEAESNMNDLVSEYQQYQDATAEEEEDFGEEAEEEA
Sequence of proteins of HEK293T cells transiently overexpressing caspase-6 (Homo sapiens, UniProt P25705) (P25705 44-553): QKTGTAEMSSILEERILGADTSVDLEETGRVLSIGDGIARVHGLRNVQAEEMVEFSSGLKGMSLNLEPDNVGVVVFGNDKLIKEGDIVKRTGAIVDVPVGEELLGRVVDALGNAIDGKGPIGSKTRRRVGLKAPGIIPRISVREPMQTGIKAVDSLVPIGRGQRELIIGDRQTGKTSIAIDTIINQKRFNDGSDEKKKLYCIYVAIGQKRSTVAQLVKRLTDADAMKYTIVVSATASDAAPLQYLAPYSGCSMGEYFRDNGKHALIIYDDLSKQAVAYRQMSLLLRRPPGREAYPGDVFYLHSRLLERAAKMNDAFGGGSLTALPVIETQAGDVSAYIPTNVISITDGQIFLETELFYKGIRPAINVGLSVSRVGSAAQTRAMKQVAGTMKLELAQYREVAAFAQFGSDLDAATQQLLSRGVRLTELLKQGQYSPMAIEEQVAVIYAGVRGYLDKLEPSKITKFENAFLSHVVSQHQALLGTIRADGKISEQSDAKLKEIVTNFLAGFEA
Sequence of proteins of HEK293T cells transiently overexpressing caspase-6 (Homo sapiens, UniProt P84090) (P84090 whole entry): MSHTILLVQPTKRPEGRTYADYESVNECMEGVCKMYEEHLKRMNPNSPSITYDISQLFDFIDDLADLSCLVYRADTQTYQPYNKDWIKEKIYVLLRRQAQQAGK
Sequence of proteins of HEK293T cells transiently overexpressing caspase-6 (Homo sapiens, UniProt P08238) (P08238 whole entry): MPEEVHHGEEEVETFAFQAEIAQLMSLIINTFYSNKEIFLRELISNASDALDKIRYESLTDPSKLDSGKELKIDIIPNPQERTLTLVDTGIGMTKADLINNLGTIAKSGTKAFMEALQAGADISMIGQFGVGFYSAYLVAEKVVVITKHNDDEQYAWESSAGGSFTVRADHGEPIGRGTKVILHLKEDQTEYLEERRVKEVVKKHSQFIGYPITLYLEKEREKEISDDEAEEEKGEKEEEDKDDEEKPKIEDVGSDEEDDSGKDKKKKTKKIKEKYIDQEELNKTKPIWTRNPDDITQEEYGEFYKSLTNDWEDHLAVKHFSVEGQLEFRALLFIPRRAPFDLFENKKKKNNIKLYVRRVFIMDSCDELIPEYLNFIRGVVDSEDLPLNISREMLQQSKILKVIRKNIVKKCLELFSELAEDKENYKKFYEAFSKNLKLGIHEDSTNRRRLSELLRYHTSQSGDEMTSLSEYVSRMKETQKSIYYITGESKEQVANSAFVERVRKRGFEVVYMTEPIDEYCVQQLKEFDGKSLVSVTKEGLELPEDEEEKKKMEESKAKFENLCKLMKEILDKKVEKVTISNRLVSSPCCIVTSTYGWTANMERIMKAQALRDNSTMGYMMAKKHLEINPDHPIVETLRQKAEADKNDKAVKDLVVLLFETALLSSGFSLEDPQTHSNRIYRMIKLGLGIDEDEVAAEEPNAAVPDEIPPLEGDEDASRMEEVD
Sequence of proteins of HEK293T cells transiently overexpressing caspase-6 (Homo sapiens, UniProt P14868) (P14868 whole entry): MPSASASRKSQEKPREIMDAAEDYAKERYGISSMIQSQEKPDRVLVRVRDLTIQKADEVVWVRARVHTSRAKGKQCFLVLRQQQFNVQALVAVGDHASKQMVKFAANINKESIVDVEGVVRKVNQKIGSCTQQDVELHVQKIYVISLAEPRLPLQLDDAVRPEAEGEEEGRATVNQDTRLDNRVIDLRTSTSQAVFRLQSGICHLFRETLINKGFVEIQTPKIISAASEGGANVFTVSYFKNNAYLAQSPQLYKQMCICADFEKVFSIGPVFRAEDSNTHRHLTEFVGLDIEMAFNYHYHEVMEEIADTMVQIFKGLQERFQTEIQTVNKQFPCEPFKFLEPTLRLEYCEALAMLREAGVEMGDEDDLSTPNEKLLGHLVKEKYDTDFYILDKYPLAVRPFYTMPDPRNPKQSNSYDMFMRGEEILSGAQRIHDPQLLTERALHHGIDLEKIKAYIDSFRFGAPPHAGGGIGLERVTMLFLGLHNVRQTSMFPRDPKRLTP
Sequence of proteins of HEK293T cells transiently overexpressing caspase-6 (Homo sapiens, UniProt Q9NVX2) (Q9NVX2 whole entry): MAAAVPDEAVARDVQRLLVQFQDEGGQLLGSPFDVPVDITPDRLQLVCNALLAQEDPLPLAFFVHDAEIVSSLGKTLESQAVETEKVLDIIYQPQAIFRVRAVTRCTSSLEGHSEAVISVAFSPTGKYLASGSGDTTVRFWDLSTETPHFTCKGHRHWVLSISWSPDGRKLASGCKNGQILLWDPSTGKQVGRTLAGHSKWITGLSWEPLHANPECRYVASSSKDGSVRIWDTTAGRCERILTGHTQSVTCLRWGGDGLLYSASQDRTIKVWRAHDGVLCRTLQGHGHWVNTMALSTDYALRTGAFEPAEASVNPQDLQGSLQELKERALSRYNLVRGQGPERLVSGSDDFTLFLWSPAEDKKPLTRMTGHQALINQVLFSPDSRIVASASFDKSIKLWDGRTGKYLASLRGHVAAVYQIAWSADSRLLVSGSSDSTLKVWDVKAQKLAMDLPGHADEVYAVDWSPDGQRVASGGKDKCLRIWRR
Sequence of proteins of HEK293T cells transiently overexpressing caspase-6 (Homo sapiens, UniProt Q99714) (Q99714 whole entry): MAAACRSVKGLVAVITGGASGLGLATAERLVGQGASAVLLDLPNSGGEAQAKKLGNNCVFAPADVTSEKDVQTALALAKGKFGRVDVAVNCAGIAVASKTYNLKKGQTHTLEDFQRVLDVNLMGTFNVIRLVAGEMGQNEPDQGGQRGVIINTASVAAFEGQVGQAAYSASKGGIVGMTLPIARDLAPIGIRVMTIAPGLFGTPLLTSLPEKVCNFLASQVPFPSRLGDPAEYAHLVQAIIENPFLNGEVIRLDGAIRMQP
Sequence of proteins of HEK293T cells transiently overexpressing caspase-6 (Homo sapiens, UniProt P39687) (P39687 whole entry): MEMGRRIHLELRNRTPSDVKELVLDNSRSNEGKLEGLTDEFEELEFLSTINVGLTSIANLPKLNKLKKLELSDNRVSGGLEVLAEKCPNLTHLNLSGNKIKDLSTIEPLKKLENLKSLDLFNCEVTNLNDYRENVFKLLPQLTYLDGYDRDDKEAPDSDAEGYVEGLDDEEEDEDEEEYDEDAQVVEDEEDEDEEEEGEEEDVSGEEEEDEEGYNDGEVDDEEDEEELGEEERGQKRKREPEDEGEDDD

Question: Which results are given for `C#CCOc1ccc([C@@H]2C[C@@H](C(=O)Nc3ccc(OC(F)(F)F)cc3)CN(S(=O)(=O)C=C)C2)cc1` (relative stereo) [13-t]?
Answer: enrich.exp.med ([1]; exp_ref Probe, analysis C6): 0.788; enrich.exp.med.lin [1]: 1.727; enrich.exp.med.log2 [1]: 0.788; enrich.exp.med [2]: 0.3273; enrich.exp.med ([3]; exp_ref Probe, analysis C6): 1.184; enrich.exp.med.lin [3]: 2.273; enrich.exp.med.log2 [3]: 1.184; enrich.exp.med [4]: 0.3736; enrich.exp.med [5]: 0.4884; enrich.exp.med [6]: -0.052; enrich.exp.med ([7]; exp_ref Probe, analysis C6): 0.7015; enrich.exp.med.lin [7]: 1.626; enrich.exp.med.log2 [7]: 0.7015; enrich.exp.med [8]: 0.2226; enrich.exp.med.lin [9]: 4.704; enrich.exp.med.log2 [9]: 2.234; enrich.exp.med.lin ([9]; Expt Probe, analysis C6): 4.704; enrich.exp.med.log2 ([9]; Expt Probe, analysis C6): 2.234; enrich.exp.med ([9]; exp_ref Probe, analysis C6): 2.234; enrich.exp.med [10]: -0.8193; enrich.exp.med [11]: 0.1684; enrich.exp.med [12]: -1.769; enrich.exp.med [13]: 1.2493
